Measured values as given in the METLIN SMRT retention time set (Domingo-Almenara et al. 2019).

Test: gradient 5% acetonitrile 3 min, to 50% in 2 min, to 85% in 15 min, held 3 min, 100 µL/min
Conditions: column: Zorbax Extend-C18 2.1 x 50 mm; eluents: water / acetonitrile, 0.1% formic acid
In short: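 The system's dead and dwell volumes were 40 μL and 900 μL, with a Zorbax Extend-C18 column (2.1 × 50 mm, 1.8 μm) run at 100 μL/min in water and acetonitrile containing 0.1% formic acid each. Pure standards were analyzed in mixtures of ~100 molecules by HPLC–quadrupole time-of-flight mass spectrometry in positive and negative ionization mode. Retention time was assigned from computationally picked, manually inspected adduct peaks.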

RP-LC retention time | SMILES
629 s | CC1Cc2ccccc2N1C(=O)c1ccc(=O)n(CCC(=O)N2CCN(c3ccccn3)CC2)n1 (stereo not drawn)
1000 s | O=C(CN1C(=O)CCCc2cc(S(=O)(=O)N3CCCCC3)ccc21)Nc1ccc(F)c(Cl)c1
664 s | Cc1c(C(=O)N2CCC(C)CC2)c(S(=O)(=O)N2CCN(c3ccccn3)CC2)c(C)n1C
927 s | Cc1oc(C(=O)O)cc1COc1ccc2c(oc(=O)c3ccccc32)c1C
848 s | COc1cc(Cl)c(C)cc1NC(=O)Cc1nnc(-c2ccc3ncccc3c2)o1
754 s | Clc1ccc(N2CCN(Cc3cc4ccccn4n3)CC2)cc1
978 s | Cc1cccc(-c2noc(C3CC(=O)N(c4ccc5c(c4)OCO5)C3)n2)c1 (stereo not drawn)
1220 s | Cc1ccc(-n2nc(C)c3sc(N4CCCC(C(=O)Nc5ccccc5C)C4)nc32)cc1 (stereo not drawn)
567 s | CN(CC1CCCO1)C1CCN(C(=O)C2CCN(c3ccc(-c4cccs4)nn3)CC2)CC1 (stereo not drawn)
575 s | O=C(NCCc1ccccc1)N1CCc2nc[nH]c2C1
775 s | Cn1cc(-c2cc3n(n2)CCC(=O)N3CCCC(=O)NCc2ccco2)c2ccccc21
766 s | Cc1oc(-c2ccc(C(=O)N3CCN(c4ccccn4)CC3)cc2)nc1CN1CCc2ccccc21
729 s | COc1ccc(N2C=C(C(=O)N3CCOCC3)S(=O)(=O)c3ccc(F)cc32)cc1OC
776 s | Cc1ccc(C)c(S(=O)(=O)Nc2ccc3scnc3c2)c1
913 s | Cc1c(C(=O)C(=O)N2CCc3ccccc3C2)c2ccccc2n1C
904 s | CCc1noc(NC(C)=O)c1-c1ccc(C)c(S(=O)(=O)Nc2c(C)cc(C)cc2C)c1
626 s | CCCNC(=O)C1CCN(c2ccc(SCC(=O)NCc3cc(F)cc(F)c3)nn2)CC1
1050 s | Cc1ccc(CNC(=O)CCCn2nc(-n3cccc3)c3c(C)cc(C)nc32)cc1
1140 s | CC(C)n1nnc2ccc(-c3noc(-c4ccc(F)cc4)n3)cc21
680 s | CN1CCC(N(C)C(=O)CN2C(=O)C(Oc3ccc(F)cc3)C23CCCCC3)CC1 (stereo not drawn)
638 s | CCOc1cc2c(cc1OCC)C1C(C(=O)N3CCN(CC)CC3)c3ccccc3C(=O)N1CC2 (stereo not drawn)

RP-LC retention time | SMILES
1070 s | C=Cc1ccc(CSc2ccc(-n3nc4c(c3C)CCC4)nn2)cc1
546 s | O=C(NC1CC1)[C@@H]1C[C@H](Oc2cccnc2)CN1C(=O)c1ccoc1
681 s | Fc1ccc(Cl)cc1-c1nnc(-c2ccc(-n3ccnc3)nc2)o1
806 s | Cc1noc(-c2ccnc(-n3cnc(C(=O)NCc4ccccc4)c3)c2)n1
664 s | O=C(c1ccc(N2CCCC2)c(S(=O)(=O)N2CCCC2)c1)N1CCN(c2ccccn2)CC1
799 s | CCOC(=O)N1CCN(C(=O)CSc2nnc(COc3ccc(Cl)cc3)o2)CC1
756 s | CCOc1ccc(CNC(=O)C2CCN(S(=O)(=O)c3ccc4c(c3)CCCC(=O)N4)CC2)cc1
856 s | COc1ccc(NC(=O)c2cnc(-c3ccc(F)cc3)nc2-c2ccncc2)cc1
596 s | O=C(c1ccc2c(c1)ncn2CCN1CCCC1)N1CCN(c2ccccc2F)CC1
1090 s | O=C(NCCCc1ccccc1)C1CCCN(c2nccnc2Sc2ccccc2)C1 (stereo not drawn)
575 s | Cc1cnc(-c2cccnc2)n1C1CCN(S(=O)(=O)c2cccnc2)C1 (stereo not drawn)
746 s | CN(CC(=O)N1CC=C(c2ccccc2)CC1)S(=O)(=O)c1ccc2c(c1)CCCC(=O)N2
711 s | COc1cc(Cl)c(NC(=O)C2CC(=O)N(c3cccc(NC(C)=O)c3)C2)c(OC)c1 (stereo not drawn)
739 s | CC(C)C(=O)Nc1nc(-c2ccc3c(c2)NC(=O)CO3)cs1
831 s | CC(C)c1nc2nccc(-c3ccc(F)cc3)n2n1
971 s | Cc1ccccc1OCC(=O)N1CCc2cc(-c3ccno3)ccc21
840 s | CC1(C(=O)NCc2ccccc2Cl)Cn2cnc(C(=O)NC3CCCCC3)c2C(=O)N1C1CC1 (stereo not drawn)
780 s | COc1ccc(N2C(=O)CC(c3ccc(OC)c(OC)c3)CC2=O)cc1
904 s | CCOc1ccccc1NC(=O)N1CCC2(CC1)NC(=O)c1cc(Cl)ccc1N2C
816 s | Cc1cc(C)cc(NC(=O)C2CCN(C(=O)c3ncn4c3COC(c3ccc(F)cc3)C4)CC2)c1 (stereo not drawn)
892 s | Cc1nc(-c2csc(S(=O)(=O)N3CCCC(C(=O)Nc4ccc(F)cc4C)C3)c2)no1 (stereo not drawn)

RP-LC retention time | SMILES
530 s | CNC(=O)[C@@H]1CN(S(=O)(=O)c2cnc[nH]2)C[C@H]1c1n[nH]c(C)n1
774 s | CCC(C)NC(=O)C1CCCN(C(=O)c2[nH]c(C)c(C(=O)OC(C)C)c2C)C1 (stereo not drawn)
876 s | COC(=O)c1cc(OC)c(OC)cc1NC(=O)NCCc1c[nH]c2ccccc12
978 s | O=C(Nc1ccccn1)C1CCCN(S(=O)(=O)c2cc(-c3noc(C4CCC4)n3)cs2)C1 (stereo not drawn)
762 s | COc1ccc(NS(=O)(=O)c2cc3c(s2)CCN(C(=O)C2CC2)C3)cc1F
888 s | CCOC(=O)Cc1ccc(NC(=O)NC2CCN(c3cc(C)cc(C)c3)C2=O)cc1 (stereo not drawn)
756 s | CCN1C(=O)c2c(C(=O)NCCc3ccccc3)ncn2CC1(C)C(=O)NC1CCCC1 (stereo not drawn)
932 s | CCOc1ccc(OCC)c(NS(=O)(=O)c2cc(-c3c(CC)noc3NC(C)=O)ccc2C)c1
689 s | CCc1nc(OCC(=O)NCc2ccc(N(C)C)cc2)c2c(C)c(C)oc2n1
677 s | Cc1ccc(CNC(=O)N2CCN(C(=O)N3C[C@H]4C[C@@H](C3)[C@H]3CCCC(=O)N3C4)CC2)cc1
961 s | Cc1ccc(S(=O)(=O)N(C)c2ccc(C(=O)N3C(C)CCCC3C)cc2)cc1 (stereo not drawn)
872 s | CC(C)c1nnc(-c2cccnc2N2CCN(C(=O)CC3CCCC3)CC2)o1
612 s | Cc1ccnc(OCC(=O)Nc2cc(C)on2)n1
907 s | CCCN1C(=O)c2c(C(=O)NCCc3ccc(C)cc3)ncn2CC1(C)C(=O)NCCC(C)C (stereo not drawn)
747 s | Cc1ccn2c(Nc3ccc4c(c3)OCO4)c(-c3cc(Br)ccc3F)nc2c1
885 s | CCc1ccc(NC(=O)Cn2ccc3ccc(-c4nnc(C)o4)cc32)cc1
755 s | O=C(C1=CN(c2cccc(F)c2)c2cc(F)ccc2S1(=O)=O)N1CCOCC1
1030 s | O=C(Nc1cc(-c2ccsc2)no1)C1(c2ccccc2)CC1
701 s | CCNC(=O)C1CCCN(c2nc3ncn(CC(=O)Nc4cccc(Cl)c4)c(=O)c3s2)C1 (stereo not drawn)
980 s | COC(=O)c1ccc(-c2nc3cnccn3c2Nc2cccc(C)c2C)cc1

SMILES | RP-LC retention time
CCN1C[C@]2(C)CC[C@H](OC)[C@]34C2[C@H](OC(C)=O)[C@@]2(OCO[C@@]25CC(OC)[C@H]2C[C@]3(O)C5[C@H]2OC)C14 (stereo partly drawn) | 662 s
